Measured values reported in patent US20220105135A1, “METHODS AND COMPOSITIONS FOR THE MODULATION OF OPIOID SIGNALING IN THE TUMOR MICROENVIRONMENT” (The Broad Institute, Inc., priority 2020, published 2022).

Assays:
aminopeptidase B = aminopeptidase B (Homo sapiens, UniProt Q9H4A4); settings: cited from earlier work
thermolysin = target: T1, thermolysin (Bacillus thermoproteolyticus, UniProt P00800); settings: cited from earlier work
T1 sequence (P00800 233-548): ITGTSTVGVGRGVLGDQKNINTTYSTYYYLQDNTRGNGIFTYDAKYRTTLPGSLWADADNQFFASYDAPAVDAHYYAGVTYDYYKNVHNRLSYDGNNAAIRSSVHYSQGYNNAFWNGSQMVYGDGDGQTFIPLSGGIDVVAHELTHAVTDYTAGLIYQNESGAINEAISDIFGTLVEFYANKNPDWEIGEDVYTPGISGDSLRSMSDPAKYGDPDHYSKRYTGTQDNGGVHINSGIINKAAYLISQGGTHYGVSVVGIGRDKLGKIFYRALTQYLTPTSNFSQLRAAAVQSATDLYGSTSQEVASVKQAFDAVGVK

bacteria = test system: bacteria; parameters: dose or concentration left out as unconfirmed; settings: cited from earlier work
chymotrypsin = chymotrypsin (Bos taurus, UniProt P00766); settings: cited from earlier work
leucine aminopeptidase = settings: cited from earlier work
fungi = settings: at 100 pg/ml; cited from earlier work
elastase = settings: cited from earlier work
trypsin = trypsin (Homo sapiens, UniProt P07477); settings: cited from earlier work
[1] = intraperitoneal injection of 300 mg/kg to mice; cited from earlier work
aminopeptidase A = aminopeptidase A (Homo sapiens, UniProt Q07075); settings: cited from earlier work
pepsin = pepsin (Homo sapiens, UniProt P0DJD8); settings: cited from earlier work
papain = target: T2, papain (Carica papaya, UniProt P00784); settings: cited from earlier work
T2 sequence (P00784 134-345): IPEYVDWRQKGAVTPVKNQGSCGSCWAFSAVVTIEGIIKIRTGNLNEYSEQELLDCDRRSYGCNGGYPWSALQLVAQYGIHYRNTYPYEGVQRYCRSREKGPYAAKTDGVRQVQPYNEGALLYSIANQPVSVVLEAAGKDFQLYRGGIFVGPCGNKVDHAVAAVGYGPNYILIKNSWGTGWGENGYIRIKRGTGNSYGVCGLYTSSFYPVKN

CD8+ T cells = assay: In vitro stimulation of CD8+ T cells with MENK peptide; assay type: cell-based; settings: for coinhibitory receptors / checkpoints expression on T cells: MENK stimulation
From the text: FIG. 55A. […] FIG. 55B. […] FIG. 55C. […] FIG. 55D.
Applicants determined the effect of PENK-OGFR signaling on tumor growth and anti-tumor immunity.

[2] = MENK vs control, in vitro, listed as Menk

aminopeptidase B, sequence (Q9H4A4 whole entry, species assumed): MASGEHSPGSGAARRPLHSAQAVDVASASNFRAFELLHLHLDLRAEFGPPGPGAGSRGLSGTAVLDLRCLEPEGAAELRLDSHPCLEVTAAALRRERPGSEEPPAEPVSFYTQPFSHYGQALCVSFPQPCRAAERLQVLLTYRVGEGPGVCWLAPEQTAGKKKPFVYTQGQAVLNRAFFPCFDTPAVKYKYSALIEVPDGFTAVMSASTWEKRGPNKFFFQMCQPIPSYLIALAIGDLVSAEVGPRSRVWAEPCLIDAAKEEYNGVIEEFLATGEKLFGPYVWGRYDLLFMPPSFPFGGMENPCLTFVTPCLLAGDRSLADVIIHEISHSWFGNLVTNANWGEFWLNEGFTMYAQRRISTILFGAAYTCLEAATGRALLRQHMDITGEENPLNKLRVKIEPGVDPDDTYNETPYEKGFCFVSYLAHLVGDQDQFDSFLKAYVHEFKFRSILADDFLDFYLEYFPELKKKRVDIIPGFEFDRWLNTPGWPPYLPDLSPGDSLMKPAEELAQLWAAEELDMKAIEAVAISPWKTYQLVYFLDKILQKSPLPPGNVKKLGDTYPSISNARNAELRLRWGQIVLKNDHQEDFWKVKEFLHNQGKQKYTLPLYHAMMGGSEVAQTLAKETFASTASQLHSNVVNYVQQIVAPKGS
aminopeptidase A, sequence (Q07075 whole entry, species assumed): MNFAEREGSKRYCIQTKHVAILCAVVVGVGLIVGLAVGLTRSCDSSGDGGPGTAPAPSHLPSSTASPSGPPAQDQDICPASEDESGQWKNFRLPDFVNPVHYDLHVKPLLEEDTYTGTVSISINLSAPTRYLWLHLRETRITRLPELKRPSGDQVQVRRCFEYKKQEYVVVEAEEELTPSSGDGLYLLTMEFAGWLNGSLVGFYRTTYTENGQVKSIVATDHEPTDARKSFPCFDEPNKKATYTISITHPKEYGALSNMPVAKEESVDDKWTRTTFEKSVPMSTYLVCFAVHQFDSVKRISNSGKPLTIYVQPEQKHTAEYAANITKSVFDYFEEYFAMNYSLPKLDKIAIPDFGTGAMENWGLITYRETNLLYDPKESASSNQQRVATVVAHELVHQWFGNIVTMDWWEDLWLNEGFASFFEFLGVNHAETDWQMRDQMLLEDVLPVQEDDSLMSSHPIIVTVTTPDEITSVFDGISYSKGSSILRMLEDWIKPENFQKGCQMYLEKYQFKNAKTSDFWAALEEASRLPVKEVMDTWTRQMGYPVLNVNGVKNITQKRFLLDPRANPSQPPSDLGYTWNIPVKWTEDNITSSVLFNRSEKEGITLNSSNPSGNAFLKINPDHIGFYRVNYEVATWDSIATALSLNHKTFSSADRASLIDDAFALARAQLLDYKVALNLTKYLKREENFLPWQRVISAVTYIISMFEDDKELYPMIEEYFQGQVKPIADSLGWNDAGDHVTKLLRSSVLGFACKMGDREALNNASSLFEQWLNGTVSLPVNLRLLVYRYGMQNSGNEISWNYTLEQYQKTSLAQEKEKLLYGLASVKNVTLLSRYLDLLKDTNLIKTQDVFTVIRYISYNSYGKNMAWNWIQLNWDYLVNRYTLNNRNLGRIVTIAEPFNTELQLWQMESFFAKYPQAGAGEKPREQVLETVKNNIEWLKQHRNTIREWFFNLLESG
pepsin, sequence (P0DJD8 63-388): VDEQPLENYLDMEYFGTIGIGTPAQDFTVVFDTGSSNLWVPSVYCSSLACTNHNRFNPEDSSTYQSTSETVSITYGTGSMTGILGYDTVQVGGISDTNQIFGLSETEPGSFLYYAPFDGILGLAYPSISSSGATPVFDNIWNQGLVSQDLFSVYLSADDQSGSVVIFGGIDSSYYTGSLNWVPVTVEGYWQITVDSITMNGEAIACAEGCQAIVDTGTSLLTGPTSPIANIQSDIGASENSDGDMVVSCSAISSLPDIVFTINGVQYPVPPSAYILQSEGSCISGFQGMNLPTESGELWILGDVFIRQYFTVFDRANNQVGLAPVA

## CC(C)C[C@H](NC(=O)[C@@H](O)[C@H](N)Cc1ccccc1)C(=O)O [Bestatin, ubenimex (bestatin)]
Aminopeptidase B
  inhibition of aminopeptidase B: specific inhibitor
thermolysin
  inhibition of thermolysin: does not show any inhibition
bacteria
  antibacterial activity: no antibacterial
chymotrypsin
  inhibition of chymotrypsin: does not show any inhibition
Leucine aminopeptidase
  inhibition of leucine aminopeptidase: specific inhibitor
fungi
  antifungal activity: no antifungal
elastase
  inhibition of elastase: does not show any inhibition
trypsin
  inhibition of trypsin: does not show any inhibition
[1]
  toxicity (death): no death
Aminopeptidase A
  inhibition of aminopeptidase A: does not show any inhibition
pepsin
  inhibition of pepsin: does not show any inhibition
papain
  inhibition of papain: does not show any inhibition

## [Met]enkephalin (YGGFM) [MENK, enkephalin peptide produced by proteolytic cleavage of PENK]
CD8+ T cells
  coinhibitory receptors / checkpoints expression on T cells: increases
CD8+ T cells; listed as Menk
  coinhibitory receptors / checkpoints expression on T cells: increased expression of several checkpoints
CD8+ T cells; MENK vs control, in vitro
  CD160: increased
  IL-2: decreased
  PD1: increased
  PD1+ TIM3+CD8+ T cells: increased
  TIM3: increased
  proliferation: decreased
CD8+ T cells; [2]
  IL-2: dampened
  proliferation: some reduction
